Like-named read-outs stand apart in the source and are kept apart here.
Key:
VDAC3 = VDAC3 protein level (western blot) in HCT116 cells; format: cell-based, human; conditions: 10 or 20 µM, 8 h
Text: HCT116 cell lysates were subject to immunoprecipitation with control IgG and anti-VDAC3 antibodies. d, e In vitro binding assay of purified His-tagged-PKM2 and GST-tagged-VDAC3. f K433E enhanced the interaction of PKM2 and VDAC3. Stagged-WT PKM2, a succinylation mimic K433E and a succinylation null mutant K433R and flag-VDAC3 were co-transfected into HCT116 cells for Stag bead pull down that specially pulls down Stagged proteins. g Glucose starvation enhanced the interaction of PKM2 and VDAC3. […]
Fig. 6 Compound 8 blocks PKM2 mitochondrial translocation under nutritional stress and inhibits tumor growth in vivo. a Compound 8 blocks glucose starvation induced PKM2 mitochondrial translocation. […] HCT116 cells were transfected with HA-tagged PKM2, cells were harvested and subjected to stag pull down after 8 h 20 µM compound 8 treatment. c Compound 8 induces VDAC3 for degradation. cells were harvested and evaluated VDAC3 protein levels after 8 h 10 or 20 µM compound 8 treatment. d, e Compound 8 caused a decrease in the rate of NADH oxidation. […] NAD/NADH ratios in HCT116 cell lysates were evaluated by LC–MS. f Compound 8 inhibited ATP production in HCT116 cells. g The tumor volume (n = 7) of HCT116 xenografts from mice with intraperitoneal injection of compound 8 and vehicle control […]

HCT116 cells [1] = assay: cell viability test, HCT116; format: cell-based, human; conditions: cell viability, 48 h, read-out: IC50 (HCT116)
Method: (§1) We assessed the anti-tumor effects of compound 8 by evaluation of cancer cell viability. Compound 8 reduced cell viability with an IC50 of about 5 µM in MTT reduction assays in HCT116, MCF7, and H1299 cells (Table 2). […] To determine whether cancer cell death brought about by compound 8 is PKM2 dependent, PKM2 was knocked down in HCT116 cells using two different shRNA sequences that specifically targeted exon 10 without interfering with PKM1 expression. Compound 8 is an inhibitor which causes a loss of function of PKM2. If PKM2 is a specially targeted by compound 8, its knockdown should render cells more vulnerable to compound 8-mediated PKM2 inhibition since shRNA and compound 8 work synergistically by reducing the intracellular drug target concentration.
Cells were seeded in 96-well plates at 5000 cells/well in DMEM media overnight. Cells were treated with different concentrations of test compound for 48 h at 37 °C in 5% CO2. Cell viability was assayed with the MTS assay (Promega) and trypan blue staining according to the manufacturer’s instructions.

[2] = tested on: PKM2 knockdown HCT116 cells; assay: annexin v stain apoptosis assay in PKM2 knockdown cells; format: cell-based, human; conditions: 20 µM, 12 h
Text: Fig. 5 Identification and characterization of PKM2 inhibitors. a PKM2 inhibitors. […] It prints only the data set name 'Data: pkm2_NDH', so the substance label is left empty. / Panel b, N: small print, 0.941 ±0.0712, digits uncertain / Panel b, K: small print, 8.63E4 ±3.63E4, the digits 8, 6 and 3 are uncertain / Panel b, ΔH: small print, -5962 ±675.9, the digits 5, 9 and 6 are uncertain / Panel b, ΔS: small print, 2.59, the digits 5 and 9 are uncertain
as §1
Two shRNAs with PKM2 specific exon 10 sequence knockdown were used (5'-[…]-3'; 5'-[…]-3'), and a shRNA with no effect on PKM2 levels was employed as a control (5'-[…]-3). […]

PKM2 = PKM2 (Homo sapiens, UniProt P14618); assay: pyruvate kinase activity in lysate of treated HCT116 cells; format: cell-based; design: endogenous in cells; host or cells: HCT116; conditions: 6 h treatment, Fig. 5c
PKM2, sequence (P14618 2-531 limits assumed): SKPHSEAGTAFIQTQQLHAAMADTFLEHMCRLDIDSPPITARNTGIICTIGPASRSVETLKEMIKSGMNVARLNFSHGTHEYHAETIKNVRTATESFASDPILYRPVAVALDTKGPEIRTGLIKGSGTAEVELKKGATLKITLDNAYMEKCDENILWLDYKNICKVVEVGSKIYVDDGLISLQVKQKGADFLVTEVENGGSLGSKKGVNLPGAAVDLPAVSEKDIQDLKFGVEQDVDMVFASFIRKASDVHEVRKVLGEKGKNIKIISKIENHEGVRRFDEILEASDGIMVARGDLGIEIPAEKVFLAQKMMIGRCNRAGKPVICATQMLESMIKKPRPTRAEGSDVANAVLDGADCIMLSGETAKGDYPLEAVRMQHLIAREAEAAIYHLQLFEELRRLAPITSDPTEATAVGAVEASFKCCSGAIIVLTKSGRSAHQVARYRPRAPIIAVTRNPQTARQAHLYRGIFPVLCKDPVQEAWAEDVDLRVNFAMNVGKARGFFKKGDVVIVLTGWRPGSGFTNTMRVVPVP
Method: HCT116 cells were seeded overnight into 6-well plates at 1,000,000 cells/well in DMEM media. Test compounds were added for 6 h. Cells were washed two times with ice-cold phosphate-buffered saline (PBS) and lysed in lysis buffer. Lysate was analyzed for pyruvate kinase activity as described above.

HCT116 cells [3] = assay: ATP measurement, Cell Titer-Glo, HCT116 cells; format: cell-based, human; conditions: 10 or 20 μM, 8 h
Method: HCT116 cells were cultured in DMEM containing 10% FBS and seeded into six-well plates. Twenty-four hour after seeding, the medium was changed to DMEM containing 10 or 20 μM compound 8 for 8 h. ATP levels were measured using the Cell Titer-Glo Luminescent Cell Viability Assay (Promega).

CCCN(CCC)P(N)(=O)OCC1=CC(=O)c2ccccc2C1=O (stereo not shown) [Compound 8]
VDAC3 protein level (VDAC3): caused VDAC3 degradation
IC50 (HCT116 cells [1]; Homo sapiens, HCT-116, 48 h): ~5 µM
IC50 (HCT116 cells [1]): 5.19 ± 1.74 µM
apoptosis of PKM2 knockdown cells [2]: increased the apoptosis of PKM2 knockdown cells
inhibition of PKM2 activity in cancer cells (PKM2): inhibits PKM2 activity in HCT116 cells in a dose dependent manner
inhibition of PKM2 activity in cancer cells (PKM2; listed as compound 8): dose dependent
cellular ATP production (HCT116 cells [3]): inhibited cellular ATP production in a concentration-dependent manner

— publication PMC6382874, “Succinylation-dependent mitochondrial translocation of PKM2 promotes cell survival in response to nutritional stress” (Cell Death & Disease, 2019)
